1 molecule from patent publication US20250000881A1, “TREATMENT OF TREATMENT RESISTANT […] PSILOCYBIN” (COMPASS […], priority 2021, published 2025) can be followed below.

Data set [1] has as its system adult subjects with TRD. The data set can be described thus: Phase 2b trial in TRD: Positive and Negative Affect Schedule (PANAS). The following applies: 25 mg vs 1 mg group, week 3. In kind it is in vivo, human. As for the experimental part:
(§1) Other objectives were to evaluate the effects of psilocybin on quality of life and wellbeing, functioning and associated disability, cognitive function, and anxiety compared to 1 mg psilocybin on: • (a) Quality of life in subject EuroQoL (EQ)-5 dimension-3 level scale (EQ-5D-3L) score change from Baseline to week 3. This will also be assessed at week 12. This assessment was not mandatory. • (b) Quality of life in caregiver EQ-5D-3L score change from Baseline to week 3. This was assessed at week 12. • (c) Functioning and associated disability in the Sheehan Disability Scale (SDS) score change from Baseline to week 3. This was also assessed at week 12. • (d) Cognitive function as measured by the Digit Symbol Substitution Test (DSST) score change from baseline to week 3. This was assessed at day 1 and week 12. • (e) Level of anxiety as measured using the change in Generalised Anxiety Disorder 7 item Scale (GAD-7) total score change from baseline to week 3. This was assessed at week 12. • (f) Subject determined level of depression as measured using the change in Quick Inventory of Depressive Symptomatology Self-Rated (QIDS-SR-16) total score from Baseline to week 3. […] This was assessed at week 12. • (h) To evaluate the impact of different psilocybin doses on real life functional activity estimated from passive data streams collected on a mobile app on subjects' mobile phones. […]

For data set [2], the system named is adult subjects with TRD. The data set can be described thus: Phase 2b trial in TRD: Sheehan Disability Scale (SDS). The data set is classed as in vivo, human. The following applies: 25 mg vs 1 mg, week 3. As for the experimental part:
as §1

The test system of data set [3] is adult subjects with TRD. The data set can be described thus: Phase 2b trial in TRD: Work and Social Adjustment Scale (WSAS). In kind it is in vivo, human. The following applies: 25 mg vs 1 mg, week 3. Here is the method:
as §1

In brackets after ≈: the same amount, converted by molar mass.

By solubility is commonly meant the concentration that dissolves in the medium under given conditions. The low end stands for little dissolved substance, the high end for much dissolved substance. On to `CN(C)CCc1c[nH]c2cccc(OP(=O)(O)O)c12` [COMP360, psilocybin], for which, in the data set with adult subjects with TRD [1], the “PANAS negative affect, least squares mean (95% confidence intervals) treatment difference” value is recorded as −3.18 (−5.59, −0.77) and the “PANAS positive affect, least squares mean (95% confidence intervals) treatment difference” value is recorded as 6.17 (3.53, 8.82). The molecule further registered an SDS treatment difference with adult subjects with TRD [2] of −6.49. The same molecule came in with a WSAS treatment difference in the data set with adult subjects with TRD [3] of −5.11. The solubility in “Solubility in water” is approximately 15 mg/mL (≈ 52.8 mM).
